Consider five molecules from article PMC10261145, “Ceramide sensing by human SPT-ORMDL complex for establishing sphingolipid homeostasis” (Nature Communications, 2023).

The chains are these.
T1: SPTLC2 (human, UniProt O15270 1-562)
T1 construct: serine palmitoyltransferase subunit SPTLC2, human, codon-optimized full-length cDNA; source: HEK293F, transiently co-transfected with the other subunits, purified as a complex (anti-Flag resin, SEC, GDN)
T1 sequence (looked up): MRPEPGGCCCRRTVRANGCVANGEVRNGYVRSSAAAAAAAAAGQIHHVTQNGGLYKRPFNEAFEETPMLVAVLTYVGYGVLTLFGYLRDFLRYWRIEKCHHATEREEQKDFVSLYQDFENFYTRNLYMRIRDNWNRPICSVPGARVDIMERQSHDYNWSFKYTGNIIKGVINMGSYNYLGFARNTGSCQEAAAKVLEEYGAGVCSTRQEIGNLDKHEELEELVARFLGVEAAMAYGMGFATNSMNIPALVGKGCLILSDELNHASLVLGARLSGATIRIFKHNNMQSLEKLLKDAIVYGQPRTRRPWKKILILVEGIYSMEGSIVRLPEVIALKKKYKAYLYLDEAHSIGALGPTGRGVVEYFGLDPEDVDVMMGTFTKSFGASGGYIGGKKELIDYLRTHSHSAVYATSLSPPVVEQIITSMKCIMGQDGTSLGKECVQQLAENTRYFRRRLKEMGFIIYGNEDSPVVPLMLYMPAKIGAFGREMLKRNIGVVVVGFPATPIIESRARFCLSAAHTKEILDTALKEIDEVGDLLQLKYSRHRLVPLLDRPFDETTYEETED

T2: SPTLC1 (human, UniProt O15269 1-473)
T2 construct: serine palmitoyltransferase subunit SPTLC1, human, codon-optimized full-length cDNA; source: HEK293F, transiently co-transfected with the other subunits, purified as a complex (anti-Flag resin, SEC, GDN)
T2 sequence (looked up): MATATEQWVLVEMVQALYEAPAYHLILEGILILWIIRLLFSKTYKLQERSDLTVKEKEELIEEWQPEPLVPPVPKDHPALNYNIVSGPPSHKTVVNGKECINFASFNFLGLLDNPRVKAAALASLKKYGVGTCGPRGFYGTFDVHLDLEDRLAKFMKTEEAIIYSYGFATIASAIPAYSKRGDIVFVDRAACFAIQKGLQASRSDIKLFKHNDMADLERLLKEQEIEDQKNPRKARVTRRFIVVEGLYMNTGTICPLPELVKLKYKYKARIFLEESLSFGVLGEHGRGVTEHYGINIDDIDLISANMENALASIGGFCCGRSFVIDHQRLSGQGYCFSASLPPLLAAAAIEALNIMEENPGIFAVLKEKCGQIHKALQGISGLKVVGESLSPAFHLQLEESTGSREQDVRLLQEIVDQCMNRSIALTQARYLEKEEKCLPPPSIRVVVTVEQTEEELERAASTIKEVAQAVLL

T3: serine palmitoyltransferase (SPT) complex (SPTLC1, SPTLC2, SPTssa) (human, UniProt O15269 1-473; O15270 1-562; Q969W0 1-71)
T3 construct: SPTLC1, human, codon-optimized full-length cDNA; SPTLC2, human, codon-optimized full-length cDNA; SPTssa, human, codon-optimized full-length cDNA; Also purified alone, without ORMDLs; also called WT SPT complex; source: HEK293F, transiently co-transfected, purified (anti-Flag resin, SEC, GDN); copies: + +
T3 sequence (looked up) 1: T2 sequence (looked up)
T3 sequence (looked up) 2: T1 sequence (looked up)
T3 sequence (looked up) 3: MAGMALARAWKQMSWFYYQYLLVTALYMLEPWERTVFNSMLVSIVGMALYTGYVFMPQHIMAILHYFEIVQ

B1: ORMDL3 (full-length, wild type) (natural protein, human, UniProt Q8N138 1-153, looked up)
chain: MNVGTAHSEVNPNTRVMNSRGIWLSYVLAIGLLHIVLLSIPFVSVPVVWTLTNLIHNMGMYIFLHTVKGTPFETPDQGKARLLTHWEQMDYGVQFTASRKFLTITPIVLYFLTSFYTKYDQIHFVLNTVSLMSVLIPKLPQLHGVRIFGINKY
notes: ORMDL3, human, codon-optimized full-length cDNA in pCAG (new ORMDL3-FL plasmid without the 14 extra nucleotides upstream of the ORF); cDNAs were cloned 'with an N-terminal Flag tag or without a tag'; also called ORMDL3-FL; WT ORMDL3; source: HEK293F, transiently co-transfected with the SPT subunits, purified as a complex (anti-Flag resin, SEC, GDN)
B2: SPTssa (natural protein, human, UniProt Q969W0 1-71, looked up)
chain: T3 sequence (looked up) 3
notes: serine palmitoyltransferase small subunit A (SPTssa), human, codon-optimized full-length cDNA; also called small SPT subunit; source: HEK293F, transiently co-transfected with the other subunits, purified as a complex (anti-Flag resin, SEC, GDN)
B3: SPT complex (Homo sapiens) (protein)
chain 1: T2 sequence (looked up)
chain 2: T1 sequence (looked up)
notes: core enzyme without ORMDL; full-length subunits co-expressed in HEK293F; N-terminal Flag tag on a subunit; purified in GDN; with Serine palmitoyltransferase small subunit A

The target in series [1] is T4, SPT-ORMDL3 complex (Homo sapiens, UniProt O15269+O15270+Q8N138, O15269:DEL39-39).
T4 construct: full-length subunits (ORMDL3-FL) co-expressed in HEK293F; N-terminal Flag tag on a subunit; purified in GDN; dimer of heterotetrameric protomers; with Serine palmitoyltransferase small subunit A
Description: DTNB CoA-release assay. The class given is biochemical. The note with it: 10 mM L-serine, 100 μM palmitoyl-CoA, 25 μM PLP, pH 7.5, 37 °C.

Series [2] addresses T5, SPT-ORMDL3 complex (Homo sapiens, UniProt O15269+O15270+Q8N138, Q8N138:N13A).
T5 construct: full-length subunits (ORMDL3-FL) co-expressed in HEK293F; N-terminal Flag tag on a subunit; purified in GDN; dimer of heterotetrameric protomers; with Serine palmitoyltransferase small subunit A
Put plainly: DTNB CoA-release assay. The class given is biochemical. The note with it: 10 mM L-serine, 100 μM palmitoyl-CoA, 25 μM PLP, pH 7.5, 37 °C.

For series [3], the target named is T6, SPT-ORMDL3 complex (Homo sapiens, UniProt O15269+O15270+Q8N138, Q8N138:H85A).
T6 construct: full-length subunits (ORMDL3-FL) co-expressed in HEK293F; N-terminal Flag tag on a subunit; purified in GDN; dimer of heterotetrameric protomers; with Serine palmitoyltransferase small subunit A
Description: DTNB CoA-release assay. In kind it is biochemical. From the text: (§1) DTNB CoA-release assay on SPT-ORMDL3 complex | severely impaired for the former two variants, but largely sustained for the latter two variants

In series [4] the target is T7, SPT-ORMDL3 complex (Homo sapiens, UniProt O15269+O15270+Q8N138, O15270:Y122A).
T7 construct: full-length subunits (ORMDL3-FL) co-expressed in HEK293F; N-terminal Flag tag on a subunit; purified in GDN; dimer of heterotetrameric protomers; with Serine palmitoyltransferase small subunit A
Description: DTNB CoA-release assay. In kind it is biochemical.
From the text: as §1

Series [5] concerns the target T8, SPT-ORMDL3 complex (Homo sapiens, UniProt O15269+O15270+Q8N138, O15269:DEL40-41).
T8 construct: full-length subunits (ORMDL3-FL) co-expressed in HEK293F; N-terminal Flag tag on a subunit; purified in GDN; dimer of heterotetrameric protomers; with Serine palmitoyltransferase small subunit A
Description: DTNB CoA-release assay. The class given is biochemical. The settings on record: 10 mM L-serine, 100 μM palmitoyl-CoA, 25 μM PLP, pH 7.5, 37 °C.

The target in series [6] is T9, SPT-ORMDL3 complex (Homo sapiens, UniProt O15269+O15270+Q8N138).
T9 construct: full-length subunits (ORMDL3-FL) co-expressed in HEK293F; N-terminal Flag tag on a subunit; purified in GDN; dimer of heterotetrameric protomers; with Serine palmitoyltransferase small subunit A
Put plainly: DTNB CoA-release assay; cryo-EM structure. The class given is biochemical.

The target of series [7] is T10, SPT-ORMDL3 complex (Homo sapiens, UniProt O15269+O15270+Q8N138, Q8N138:F63P).
T10 construct: full-length subunits (ORMDL3-FL) co-expressed in HEK293F; N-terminal Flag tag on a subunit; purified in GDN; dimer of heterotetrameric protomers; with Serine palmitoyltransferase small subunit A
Description: DTNB CoA-release assay. The class given is biochemical. The settings on record: 10 mM L-serine, 100 μM palmitoyl-CoA, 25 μM PLP, pH 7.5, 37 °C.

The target in another series is T11, SPT-ORMDL2 complex (Homo sapiens, UniProt O15269+O15270+Q53FV1).
T11 construct: full-length subunits co-expressed in HEK293F; N-terminal Flag tag on a subunit; purified in GDN; with Serine palmitoyltransferase small subunit A
Put plainly: DTNB CoA-release assay. In kind it is biochemical.

In the next series the target is T12, SPT-ORMDL1 complex (Homo sapiens, UniProt O15269+O15270+Q9P0S3).
T12 construct: full-length subunits co-expressed in HEK293F; N-terminal Flag tag on a subunit; purified in GDN; with Serine palmitoyltransferase small subunit A
Description: DTNB CoA-release assay. In kind it is biochemical.

Series [8] concerns the target T9, SPT-ORMDL3 complex. Description: cryo-EM structure; LC-MS/MS of co-purified ceramides. The class given is binding. The settings on record: endogenous co-purified lipid; C24-ceramide fitted to a ceramide-like density, chain length not uniquely defined.
A further series addresses T1, SPTLC2. Put plainly: cryo-EM structure; single-particle cryo-EM of co-expressed and co-purified SPT-ORMDL3 complexes at ~18 mg/ml in 25 mM HEPES pH 7.5, 150 mM NaCl, 0.01% GDN; apo, or WT preincubated with 1 mM C6-ceramide on ice for 1 hr. The note with it: both partners purified.
The target in the next series is T2, SPTLC1. The series is described as above. The settings on record: both partners purified.
Series [9] has as its target T3, serine palmitoyltransferase (SPT) …. Described as above. The settings on record: both partners purified.
Series [10] addresses B1. Described as above. The note with it: both partners purified.
Substrate in the series “purified protein”: N[C@@H](CO)C(=O)O
Description: purified protein. The settings on record: 100 μM palmitoyl-CoA, 25 μM PLP, pH 7.5, 37 °C.

Substrate in series [11]: CCCCCCCCCCCCCCCC(=O)SCCNC(=O)CCNC(=O)[C@H](O)C(C)(C)COP(=O)(O)OP(=O)(O)OC[C@H]1O[C@@H](n2cnc3c(N)ncnc32)[C@H](O)[C@@H]1OP(=O)(O)O
Description: DTNB CoA-release assay; allosteric sigmoidal fit. In kind it is biochemical, Homo sapiens. The note with it: 10 mM L-serine, 25 μM PLP, pH 7.5, 37 °C. From the text:
DTNB CoA-release assay; allosteric sigmoidal fit on SPT complex | SPT activity versus palmitoyl-CoA concentration for SPT and SPT-ORMDL3 complex

T7 sequence (O15270 whole entry Y122A, one chain of several): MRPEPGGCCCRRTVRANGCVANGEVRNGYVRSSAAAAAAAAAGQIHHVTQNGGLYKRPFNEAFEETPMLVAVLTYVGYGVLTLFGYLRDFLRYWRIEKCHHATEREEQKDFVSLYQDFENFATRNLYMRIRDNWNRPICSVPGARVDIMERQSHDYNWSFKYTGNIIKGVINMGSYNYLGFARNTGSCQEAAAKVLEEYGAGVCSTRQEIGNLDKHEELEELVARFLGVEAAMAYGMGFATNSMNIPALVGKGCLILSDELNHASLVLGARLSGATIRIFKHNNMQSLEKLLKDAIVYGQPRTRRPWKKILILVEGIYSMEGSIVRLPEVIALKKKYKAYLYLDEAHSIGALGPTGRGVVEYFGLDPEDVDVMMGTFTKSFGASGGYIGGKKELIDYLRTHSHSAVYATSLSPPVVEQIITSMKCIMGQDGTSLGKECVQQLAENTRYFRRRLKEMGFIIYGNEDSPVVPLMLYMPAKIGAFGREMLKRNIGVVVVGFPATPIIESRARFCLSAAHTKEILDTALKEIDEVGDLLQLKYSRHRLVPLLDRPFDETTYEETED
T4 sequence (O15269 with tags, fused parts or gaps DEL39-39, one chain of several): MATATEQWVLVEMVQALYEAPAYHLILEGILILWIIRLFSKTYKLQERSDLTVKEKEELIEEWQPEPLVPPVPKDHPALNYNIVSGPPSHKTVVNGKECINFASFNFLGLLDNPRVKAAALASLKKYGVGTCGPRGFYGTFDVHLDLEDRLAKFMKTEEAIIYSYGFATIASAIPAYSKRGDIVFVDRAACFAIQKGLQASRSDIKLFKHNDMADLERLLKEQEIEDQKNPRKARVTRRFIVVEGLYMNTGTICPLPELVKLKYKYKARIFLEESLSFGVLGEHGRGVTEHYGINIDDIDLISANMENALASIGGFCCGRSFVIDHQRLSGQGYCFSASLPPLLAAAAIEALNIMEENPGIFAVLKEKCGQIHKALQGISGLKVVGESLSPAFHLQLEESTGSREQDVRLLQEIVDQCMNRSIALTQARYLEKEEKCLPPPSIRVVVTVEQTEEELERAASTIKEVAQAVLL
T8 sequence (O15269 with tags, fused parts or gaps DEL40-41, one chain of several): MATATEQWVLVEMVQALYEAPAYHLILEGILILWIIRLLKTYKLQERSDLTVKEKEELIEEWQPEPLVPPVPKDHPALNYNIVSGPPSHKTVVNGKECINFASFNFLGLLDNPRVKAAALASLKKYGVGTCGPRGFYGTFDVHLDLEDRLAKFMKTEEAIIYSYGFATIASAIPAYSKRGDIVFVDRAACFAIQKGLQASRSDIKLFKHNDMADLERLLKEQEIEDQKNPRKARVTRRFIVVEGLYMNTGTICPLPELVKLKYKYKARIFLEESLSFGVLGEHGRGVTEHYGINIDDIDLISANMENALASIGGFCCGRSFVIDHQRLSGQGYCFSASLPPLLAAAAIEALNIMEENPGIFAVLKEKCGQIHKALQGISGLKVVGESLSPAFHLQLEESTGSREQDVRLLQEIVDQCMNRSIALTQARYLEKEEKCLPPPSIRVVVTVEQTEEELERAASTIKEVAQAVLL
T5 sequence (Q8N138 whole entry N13A, one chain of several): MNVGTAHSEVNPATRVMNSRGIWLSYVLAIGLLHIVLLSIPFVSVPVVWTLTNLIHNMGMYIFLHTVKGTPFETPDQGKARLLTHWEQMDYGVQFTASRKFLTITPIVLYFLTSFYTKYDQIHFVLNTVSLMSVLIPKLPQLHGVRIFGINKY
T11 sequence (Q53FV1 whole entry, one chain of several): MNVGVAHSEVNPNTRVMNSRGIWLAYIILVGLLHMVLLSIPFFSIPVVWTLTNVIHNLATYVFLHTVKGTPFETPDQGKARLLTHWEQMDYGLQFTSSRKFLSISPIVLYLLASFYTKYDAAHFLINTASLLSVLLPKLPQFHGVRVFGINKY
T12 sequence (Q9P0S3 whole entry, one chain of several): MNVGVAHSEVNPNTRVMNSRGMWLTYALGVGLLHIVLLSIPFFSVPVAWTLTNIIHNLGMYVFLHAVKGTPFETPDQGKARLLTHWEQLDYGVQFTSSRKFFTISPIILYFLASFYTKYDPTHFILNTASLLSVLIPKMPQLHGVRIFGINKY
T10 sequence (Q8N138 whole entry F63P, one chain of several): as the sequence (Q8N138 whole entry N13A, one chain of several) above, with A13N, F63P counted along it
T6 sequence (Q8N138 whole entry H85A, one chain of several): as the sequence (Q8N138 whole entry N13A, one chain of several) above, with A13N, H85A counted along it

Take `CCCCCCCCCCCCC/C=C/[C@@H](O)[C@H](CO)NC(=O)CCCCC` [C6-ceramide]: the inhibition curve entry is “inhibition effect of C6-ceramide on all these SPTLC1 ALS variants was attenuated” against SPT-ORMDL3 complex [1], “responses to C6-ceramide have been severely impaired for the former two variants” at SPT-ORMDL3 complex [2], “inhibition effect of C6-ceramide on all these SPTLC1 ALS variants was attenuated” against SPT-ORMDL3 complex [5] and “responses to C6-ceramide have been severely impaired for the former two variants” against SPT-ORMDL3 complex [7]. The IC50 on SPT-ORMDL3 complex [3] was found to be 964 nM; against SPT-ORMDL3 complex [4], 6980 nM; against SPT-ORMDL3 complex [6] it was 2200 nM; on SPT-ORMDL2 complex, 980 nM; at SPT-ORMDL1 complex, 4070 nM.
Consider `CCCCCCCCCCCCC/C=C/[C@@H](O)[C@H](CO)NC(=O)CCCCCCCCCCCCCCCCCCCCCCC` [C24-ceramide], for which the “cryo-EM structure; LC-MS/MS of co-purified ceramides” value on SPT-ORMDL3 complex [8] is on record as “ceramide-like density in the apo SPT-ORMDL3 structure, which could be better fitted with C24-ceramide”.
B1: the binding result (with SPTLC2; with SPTLC1; in series [9]) was “binds” throughout.
For B2, the binding result in series [10] is “binds”.
As to B3, in the series “purified protein”, the Km was 1580 ± 130 µM. Further, the K0.5 in series [11] is 4.47 ± 0.31 µM.
